Results published in PMC6947424, “New Targeted Gold Nanorods for the Treatment of Glioblastoma by Photodynamic Therapy” (Journal of Clinical Medicine, 2019).
Where “and” joins values, the source holds several entries; their conditions need not be identical. Equal entries are not always repeated. Residues, ends and D or L forms follow the SMILES beside them. *: point of attachment. Pyropheophorbide(a) = C=Cc1c(C)c2cc3nc(c4c5[nH]c(cc6nc(cc1[nH]2)C(C)=C6CC)c(C)c5C(=O)C4)[C@@H](CCC(=O)*)[C@@H]3C; Hexanoyl(6-maleimido) = O=C1C=CC(=O)N1CCCCCC(=O)*

Legend:
U87 glioblastoma cells [1] = assay: MTT cytotoxicity in the dark, U87 cells; type: cell-based; details: 24 h in the dark, n = 3
Protocol: (§1) For in vitro experiments, U87 glioblastoma cells (ATCC® HTB-14™) were cultivated in Dulbecco’s modified eagle’s medium (DMEM) supplemented with sodium pyruvate 1.5 mM, MEM AA, MEM NE AA, MEM vitamins, L-Ser 14 μg·mL^−1, L-asp 25 μg·mL^−1, L-Glu 2.5 mM, 100 U·mL^−1 penicillin, 100 μg·mL^−1 streptomycin, and 20% FCS. They were cultured under standard cell culture conditions while incubated in 5% CO2/80% humidified air at 37 °C.
Cell survival of U87 after incubation with the hybrid AuNRs, the PS-peptide conjugate or the free PS in the dark (cytotoxicity) or after light exposure (phototoxicity) was investigated using an MTT assay as previously described. […] However, the phototoxicity induced by those molecules was assessed by exposing the cells to light at a fluence of 10 J·cm^−2 (fluence rate 4.54 mW·cm^−2, duration: 36 min 42 s) using a 652 nm diode laser system (Ceralas, Biolytec, Jena, Germany). […] The cell survival was measured by MTT assay where the cells were incubated for 3 h at 37 °C with 0.4 mg·mL^−1. […] The absorption of formazan was measured at 540 nm with a background subtraction at 630 nm using a Multiskan Ascent plate reader (Thermo Scientific, Vantaa, Finland). […]
All in vitro experiments were realized in triplicate and expressed as a percentage of variation from control cells. […]

U87 glioblastoma cells [2] = assay: MTT phototoxicity after light exposure, U87 cells; type: cell-based; details: 24 h; for decrease of cell viability: then 652 nm, 10 J/cm2 (4.54 mW·cm−2), MTT after further 24 h, triplicate; for PDT efficacy / photodynamic activity (in words): 10, 20 and 30 µM PS, 652 nm, 10 J/cm2, MTT
Protocol: as §1
Cell survival of U87 after incubation with the hybrid AuNRs, the PS-peptide conjugate or the free PS in the dark (cytotoxicity) or after light exposure (phototoxicity) was investigated using an MTT assay as previously described. Briefly, U87 cells were plated into 48-well plates at an initial cell density of 2 × 10^4 cells/cm^2 in culture medium, incubated at 37 °C during 48 h. Old culture media were discarded and the wells were filled with 250 µL of culture medium containing different concentrations of the tested molecules (AuNRs@PEG-MI-K(Pyro)DKPPR-OH, MI-K(Pyro)DKPPR-OH and Pyro) at a final PS concentration of 10, 20, and 30 μM. After 24 h, the wells were washed three times with HBSS and filled with culture medium. To evaluate the cytotoxicity of the tested molecules towards the U87 cells, one plate was kept incubated in the dark. However, the phototoxicity induced by those molecules was assessed by exposing the cells to light at a fluence of 10 J·cm^−2 (fluence rate 4.54 mW·cm^−2, duration: 36 min 42 s) using a 652 nm diode laser system (Ceralas, Biolytec, Jena, Germany). The cells were further incubated for 24 h. The cell survival was measured by MTT assay where the cells were incubated for 3 h at 37 °C with 0.4 mg·mL^−1. After that, the excess of MTT was discarded and the formazan crystals that developed in the living cells were dissolved by DMSO. The absorption of formazan was measured at 540 nm with a background subtraction at 630 nm using a Multiskan Ascent plate reader (Thermo Scientific, Vantaa, Finland). Experiments were carried out in triplicates.
All in vitro experiments were realized in triplicate and expressed as a percentage of variation from control cells. The results were given as mean ± standard deviation (SD). Differences among groups were evaluated using variance analysis (Anova) followed by Bonferroni test (GraphPad Prism 6.0 software, San Diego, CA, USA). A value of p < 0.05 was considered as statistically significant. * Versus control cells.

[3] = Singlet oxygen production (quantum yield and lifetime); type: physicochemical; details: ethanol; for ΦΔ (singlet oxygen quantum yield): excitation 412 nm, detection 1270 nm, Rose Bengal as reference
Protocol: The setup and the protocol to evaluate the photophysical characterizations including the absorption, fluorescence, and singlet oxygen emission spectra in addition to the fluorescence and singlet oxygen lifetimes have been previously described by our team. The absorption spectra were recorded on a UV-3600 UV–vis double beam spectrophotometer (Shimadzu, Marne La Vallée, France) in the wavelength range of 200-800 nm. The measurements were performed on the molecules dispersed in ethanol in quartz cuvettes with an optical path of 10 mm. The fluorescence spectra were recorded on a Horiba Jobin Yvon Fluorolog-3 (FL3-222) spectrofluorimeter equipped with a 450W xenon lamp, a thermostated cell compartment (25 °C), a R928 (Hamamatsu, Massy, France) UV–vis photomultiplier and a liquid nitrogen cooled InGaAs infrared detector (DSS-16A020L Electro-Optical System Inc., Phoenixville, PA, USA). The excitation spectrometer used is a SPEX double grating monochromator (1200 grooves per mm blazed at 330 nm). The fluorescence was measured using the UV–vis detector through a SPEX double grating monochromator (600 grooves per mm blazed at 500 nm). The singlet oxygen production was measured using the IR detector through a SPEX double grating monochromator (600 grooves per mm blazed at 1 μm).
Fluorescence quantum yields (Φf) were determined using a tetraphenyl porphyrin (TPP) solution as the fluorescence standard (Φf = 0.11 in toluene, taking into account solvent refractive index and absorption efficiencies. For the direct determination of ^1O2 quantum yield (ΦΔ), excitation was performed with a Xe-arc, the light was separated in a SPEX 1680, 0.22 µm double monochromator. Detection at 1270 nm was carried out through a PTI S/N 1565 monochromator and the emission was monitored by a liquid nitrogen cooled Ge-detector (EO-817L, North Coast Scientific Co, OH, USA). Rose Bengal (RB) was chosen as a reference solution because of its high ^1O2 quantum yield in EtOH (ΦΔ = 0.68). The absorbance value at the excitation wavelengths (412 nm) of both the reference and the sample solutions were set to approximately 0.2 by dilution. The samples were all prepared in ethanol.
The quantum yield of singlet oxygen production is determined by the equation (2):(2) ΦΔ=ΦΔ0×I/I0×[…] where ΦΔ and ΦΔ0, I and I0, DO and DO0 are the luminescence quantum yields of singlet oxygen, the luminescence intensities and the optical densities of the sample and reference, respectively.
Fluorescence lifetimes were measured by Time-Correlated Single Photon Counting (TCSPC) using for excitation a pulsed laser diode LDH-P-C-405 coupled with a PDL 800-D driver (both from PicoQuant GmbH, Berlin, Germany) emitting at 408 nm (FWHM < 70 ps, 1 MHz) and an SPCM-AQR-15 avalanche photodiode (EG & G, Vaudreuil, Canada) coupled with a 650 nm (±10 nm) interference long-wave pass filter as the detection system. The acquisition system was a PicoHarp 300 module with a PHR-800 four-channel router (both from PicoQuant GmbH, Berlin, Germany). Fluorescence decays were recorded using the single photon counting method (four optical faced quartz cells for pure products in ethanol). Data were collected, and up to 1000 counts were accumulated in the maximum channel and analyzed using Fluofit TCSPC software (PicoQuant GmbH, Berlin, Germany) based on iterative reconvolution using a Levensberg-Marquandt algorithm. Singlet oxygen lifetime measurements have been performed on a TEMPRO-01 spectrophotometer (Horiba Jobin Yvon, Palaiseau, France). The apparatus was composed of a pulsed diode excitation source SpectraLED-415 emitting at 415 nm, a cuvette compartment, a Seya–Namioka type emission monochromator (600–2000 nm), and an H10330-45 near-infrared photomultiplier tube with a thermoelectric cooler (Hamamatsu, Massy, France) as the detection system. The system was monitored by a single photon counting controller FluoroHub-B and the software DataStation and DAS6 (Horiba Jobin Yvon, Palaiseau, France). […]

Compound	dark cytotoxicity (U87 glioblastoma cells [1]; even at PS concentration of 30 µM)	decrease of cell viability (U87 glioblastoma cells [2]; 10 µM PS)	decrease of cell viability (U87 glioblastoma cells [2]; 20 µM PS)	decrease of cell viability (U87 glioblastoma cells [2]; 30 µM PS)	PDT efficacy / photodynamic activity (in words) (U87 glioblastoma cells [2])	τΔ (singlet oxygen lifetime) [3]	ΦΔ (singlet oxygen quantum yield) [3]	dark cytotoxicity (metabolic activity of U87 cells) (U87 glioblastoma cells [1]; 10 µM PS)
C=Cc1c(C)c2cc3nc(c4c5[nH]c(cc6nc(cc1[nH]2)C(C)=C6CC)c(C)c5C(=O)C4)[C@@H](CCC(=O)NCCCC[C@H](NC(=O)CCCCCN1C(=O)C=CC1=O)C(=O)N[C@@H](CC(=O)O)C(=O)N[C@@H](CCCCN)C(=O)N1CCC[C@H]1C(=O)N1CCC[C@H]1C(=O)N[C@@H](CCCNC(=N)N)C(=O)O)[C@@H]3C [MI-K(Pyro)DKPPR-OH] ({Hexanoyl(6-maleimido)}-K(Pyropheophorbide(a))DKPPR-OH)	no cytotoxic effect	25%	46%	58%	lower photodynamic activity	13 μs	0.39	
C=Cc1c(C)c2cc3nc(c4c5[nH]c(cc6nc(cc1[nH]2)C(C)=C6CC)c(C)c5C(=O)C4)[C@@H](CCC(=O)O)[C@@H]3C [Pyro, pyropheophorbide-a, reference compound]					low PDT efficacy	14 μs	0.5 and 0.51	decrease the metabolic activity of U87 cells
